Experimental data as given in ChEMBL document CHEMBL5257026, “Progress and prospects on DENV protease inhibitors” (Eur J Med Chem, 2016).
Starred links: 1 amine or outer side, 2 acyl side, 3 side chain; linkers in the order of their positions; H or OH if unused. Non-standard residues stand in square brackets, D forms with d. Residues, ends and D or L forms follow the SMILES beside them. *: point of attachment. Arg(ψCOCO) = N=C(N)NCCC[C@H](N[*:1])C(=O)C(=O)[*:2]; Nle = CCCC[C@H](N)C(=O)O; Bz = O=C(c1ccccc1)*

Tests used:
[1] = Inhibition of DENV2 recombinant NS2B-NS3 protease expressed in Escherichia coli C41 using GRR-AMC as substrate incubated for 15 mins by Lineweaver-Burk plot analysis; set-up: species or system dengue virus type 2
[2] = Inhibition of DENV2 recombinant NS2B-NS3 protease expressed in Escherichia coli JM109 using acetyl-TTSTRR-para-nitroaniline as substrate preincubated for 10 mins followed by substrate addition measured after 120 mins by spectrophotometric analysis; set-up: species or system dengue virus type 2
[3] = Inhibition of DENV1 N-terminally hexa-His tagged NS2B (48 to 95 residues) -NS3 (1 to 184 residues) protease expressed in Escherichia coli XL1 Blue using QXL570-Phe-Ala-Ser-Gly-Lys-Arg-Ser-Gln-Ile-Gly-Leu-Lys(5-TAMRA)-NH2 as substrate and measured for 15 mins by FRET assay; set-up: species or system dengue virus type 1
[4] = Inhibition of DENV2 N-terminally hexa-His tagged NS2B (48 to 95 residues) -NS3 (1 to 184 residues) protease expressed in Escherichia coli XL1 Blue using QXL570-Phe-Ala-Ser-Gly-Lys-Arg-Ser-Gln-Ile-Gly-Leu-Lys(5-TAMRA)-NH2 as substrate and measured for 15 mins by FRET assay; set-up: species or system dengue virus type 2
[5] = Inhibition of DENV3 N-terminally hexa-His tagged NS2B (48 to 95 residues) -NS3 (1 to 184 residues) protease expressed in Escherichia coli XL1 Blue using QXL570-Phe-Ala-Ser-Gly-Lys-Arg-Ser-Gln-Ile-Gly-Leu-Lys(5-TAMRA)-NH2 as substrate and measured for 15 mins by FRET assay; set-up: species or system dengue virus type 3
[6] = Inhibition of DENV4 N-terminally hexa-His tagged NS2B (48 to 95 residues) -NS3 (1 to 184 residues) protease expressed in Escherichia coli XL1 Blue using QXL570-Phe-Ala-Ser-Gly-Lys-Arg-Ser-Gln-Ile-Gly-Leu-Lys(5-TAMRA)-NH2 as substrate and measured for 15 mins by FRET assay; set-up: species or system dengue virus type 4
[7] = Inhibition of DENV2 hydrophilic domain of NS2B (48 aminoacids)-NS3 (185 aminoacids) protease using Bz-Nle-Lys-Arg-Arg-AMC as substrate preincubated for 15 mins followed by substrate addition by spectrofluorometeric assay; set-up: species or system dengue virus type 2
[8] = Inhibition of DENV2 NS2B-NS3 protease expressed in Escherichia coli BL21 (DE3) using Bz-Nle-Lys-Arg-Arg-AMC as substrate preincubated for 30 mins followed by substrate addition by fluorescence plate reader analysis; set-up: species or system dengue virus type 2
[9] = Inhibition of DENV2 recombinant CF40gly(T)R fused NS2B-NS3 protease expressed in Escherichia coli XL1-Blue MRF using Boc-Gly-Arg-Arg-MCA as substrate incubated for 30 mins by fluorescence spectrophotometeric assay; set-up: species or system dengue virus type 2
[10] = Inhibition of DENV2 recombinant NS2B-(G4-S-G4)-NS3 protease using Bz-nKRR-AMC as substrate preincubated for 30 mins followed by substrate addition measured after 30 mins by fluorescence spectrophotometric analysis; set-up: species or system dengue virus type 2
[11] = Inhibition of DENV2 NS2B-G4-S-G4-NS3 protease using Bz-nKRR-AMC as substrate preincubated for 30 mins followed by substrate addition by fluorescence microplate reader assay; set-up: species or system dengue virus type 2
[12] = Inhibition of DENV2 recombinant CF40-glycine fused NS2B-NS3 protease expressed in Escherichia coli SG13009 using Ac-TTSTRR-pNA as substrate preincubated for 50 mins followed by substrate addition by spectrophotometric assay; set-up: species or system dengue virus type 2
[13] = Inhibition of DENV2 NS2B-NS3 protease using Boc-Gly-Lys-Arg-AMC as substrate incubated for 30 mins by fluorescence assay; set-up: species or system dengue virus type 2

SMILES: CC(=O)N[C@@H](CCC(=O)O)C(=O)N[C@H](C(=O)N[C@@H](CCCCN)C(=O)N[C@@H](CCCCN)C(=O)N[C@@H](CCC(N)=O)C(=O)N[C@@H](CCCNC(=N)N)C(N)=O)C(C)C (Ac-EVKKQR-NH2)
- Ki [1]: 66.7 µM

SMILES: O=C(Nc1nc2ccc([N+](=O)[O-])cc2s1)c1ccccc1Sc1ccc([N+](=O)[O-])cc1
- IC50 [2]: 34 µM

SMILES: N=C(N)Nc1cc(NC(=N)N)c2ccccc2c1O[C@H]1C[C@@H](O)[C@H](NC(=N)N)C[C@@H]1NC(=N)N
- IC50 [3]: 7.9 µM
- IC50 [4]: 6 µM
- IC50 [5]: 8.6 µM
- IC50 [6]: 34 µM

SMILES: Oc1c(C(Cc2nc3ccccc3s2)c2cccc(OCc3ccccc3)c2)ccc2ccccc12 (stereo not drawn)
- IC50 [7]: 0.91 µM

SMILES: c1ccc2[nH]c(-c3ccc(Nc4nnc(Nc5ccc(-c6nc7ccccc7[nH]6)cc5)c5ccccc45)cc3)nc2c1
- IC50 [8]: 1.1 µM

SMILES: CCN1/C(=C/C=C/c2oc3ccc4ccccc4c3[n+]2CC)Oc2ccc3ccccc3c21
- IC50 [2]: 27 µM

SMILES: N=C(N)Nc1ccc(O[C@H]2C[C@H](F)[C@H](NC(=N)N)C[C@@H]2NC(=N)N)c(NC(=N)N)c1
- IC50 [3]: 8.8 µM
- IC50 [4]: 20.5 µM
- IC50 [5]: 17.2 µM
- IC50 [6]: 53 µM

SMILES: CC(=O)N[C@@H](CO)C(=O)N[C@@H](CCCCN)C(=O)N[C@@H](CCCCN)C(=O)N[C@@H](CCCNC(=N)N)C(N)=O (Ac-SKKR-NH2)
- Ki [1]: 188 µM

SMILES: N=C(N)Nc1ccccc1O[C@H]1C[C@@H](Oc2ccccc2NC(=N)N)[C@H](NC(=N)N)C[C@@H]1NC(=N)N
- IC50 [3]: 8.8 µM
- IC50 [4]: 32 µM
- IC50 [5]: 17 µM
- IC50 [6]: 55 µM

SMILES: Cc1cc(C)c2c(c1)O[C@@H](c1ccc(N(C)C)cc1)CC2=O
- Ki [9]: 121 µM

SMILES: N=C(N)Nc1ccc(NC(=O)O[C@H]2C[C@@H](OC(=O)Nc3ccc(NC(=N)N)cc3)[C@H](NC(=N)N)C[C@@H]2NC(=N)N)cc1
- IC50 [3]: 10.3 µM
- IC50 [4]: 17 µM
- IC50 [5]: 18.4 µM
- IC50 [6]: 69 µM

SMILES: CCCC[C@H](NC(=O)c1ccccc1)C(=O)N[C@@H](CCCCN)C(=O)N[C@@H](CCCNC(=N)N)C(=O)N[C@H](C=O)CCCNC(=N)N (Bz-[Nle]KRR-aldehyde)
- IC50 [10]: 9.5 µM

SMILES: N#Cc1ccc(OC(=O)c2ccc(NC(=N)N)cc2)cc1
- IC50 [11]: 37.9 µM

SMILES: CC(=O)N[C@H](C(=O)N[C@H](C(=O)N[C@@H](CO)C(=O)N[C@H](C(=O)N[C@@H](CCCNC(=N)N)C(=O)N[C@@H](CCCNC(=N)N)C(=O)C(=O)N[C@@H](CO)C(=O)N[C@@H](CC(C)C)C(N)=O)[C@@H](C)O)[C@@H](C)O)[C@@H](C)O (Ac-TTSTR[Arg(ψCOCO)]SL-NH2)
- Ki [12]: 220 µM

SMILES: CC(=O)N[C@@H](CCCCN)C(=O)N[C@@H](CCCCN)C(=O)N[C@@H](CCCNC(=N)N)C(N)=O (Ac-Lys-Lys-Arg-NH2)
- Ki [1]: 22.3 µM

SMILES: CC(=O)N[C@@H](CCCCN)C(=O)N[C@@H](CCCNC(=N)N)C(N)=O (Ac-Lys-Arg-NH2)
- Ki [1]: 122 µM

SMILES: Cc1cc(=O)cc2oc3cc(N)c(-c4c(C)cc(O)cc4O)c(C)c3nc1-2
- Ki [13]: 35 µM

SMILES: O=C1C[C@@H](c2ccc3c(c2)OCCO3)Oc2ccccc21
- Ki [9]: 186 µM

SMILES: CC(=O)N[C@@H](CCCNC(=N)N)C(=O)N[C@H](C(=O)N[C@@H](CO)C(=O)N[C@@H](CCCCN)C(=O)N[C@@H](CCCCN)C(=O)N[C@@H](CCCNC(=N)N)C(N)=O)[C@@H](C)O (Ac-RTSKKR-NH2)
- Ki [1]: 12.1 µM

SMILES: Cc1cc(NC(=O)O[C@@H]2C[C@H](Oc3ccc(NC(=N)N)cc3N=C(N)N)[C@@H](N=C(N)N)C[C@H]2N=C(N)N)ccc1F
- IC50 [3]: 2.6 µM
- IC50 [4]: 7 µM
- IC50 [5]: 8.2 µM
- IC50 [6]: 21 µM

SMILES: CC(=O)N[C@@H](Cc1ccccc1)C(=O)N[C@@H](C)C(=O)N[C@@H](C)C(=O)NCC(=O)N[C@@H](CCCNC(=N)N)C(=O)N[C@@H](CCCCN)C(N)=O (Ac-FAAGRK-NH2)
- Ki [1]: 25.9 µM

SMILES: N=C(N)Nc1ccc(OC(=O)c2ccc(NC(=N)N)cc2)cc1
- IC50 [11]: 7.7 µM

SMILES: O=C(Nc1cccs1)c1ccccc1Sc1ccc([N+](=O)[O-])cc1
- IC50 [2]: 98 µM
